This is an account of results in US20160303108A1, “NOVEL DOSAGE FORM AND FORMULATION OF ABEDITEROL” (Almirall, S.A., priority 2012, published 2016).

Marks after values point to notes of the source that are not given here.

Data set [1] deals with persistent asthmatic patients. Briefly: Clinical phase IIa single-dose cross-over study in persistent asthma (FEV1, safety, tolerability). It is filed as in vivo, human. The source says:
Clinical phase IIa study: A randomised, single dose, double-blind, double-dummy, 6 way complete cross-over, placebo and active comparator controlled, assesses the efficacy, safety and tolerability of single doses of abediterol administered once daily by inhalation compared to placebo and active comparator in persistent asthmatic patients.
(§1) Methods: 62 patients (Adult men and women aged 18-70 years) with a clinical diagnosis of persistent asthma, as defined by the 2011 GINA guideline, for at least 6 months prior to screening and with a FEV1 61-85% of the predicted normal values (according to Quanjer et al. 1993) were randomised to treatment sequences comprising a single-dose administration of abediterol (at metered nominal doses of 0.313, 0.625, 1.25 and 2.5 micrograms in the Genuair® device), one administration of salbutamol (at a metered nominal dose of 400 micrograms (100 micrograms×4 puffs) in the Ventolin Evohaler® device) and placebo (administered in both Genuair® and Ventolin Evohaler®) administered all of them by means of […]. The washout period between each administration was at least 7 days.

In data set [2] the test system is patients with stable moderate to severe chronic obstructive pulmonary disease (COPD). Nature of the data set: Clinical phase IIa single-dose cross-over study in stable moderate to severe COPD (trough FEV1, safety, tolerability). Particulars: for Change from baseline in morning pre-dose (trough) FEV1 at Day 2: 23-24 h after administration. The class given is in vivo, human. The text has this: Clinical phase IIa study: A randomised, single dose, double-blind, double-dummy, 6 way complete cross-over, placebo and active comparator controlled, assesses the efficacy, safety and tolerability of single doses of abediterol administered once daily by inhalation compared to placebo and active comparator in patients with stable moderate to severe chronic obstructive pulmonary disease (COPD).
(§2) Methods: 63 patients (men and women aged ≧40 years) with a clinical diagnosis of stable moderate to severe COPD, as defined by the 2011 GOLD guideline, with no signs of an exacerbation within 6 weeks prior to the screening visit and with a FEV1 30-80% of the predicted normal values (according to Quanjer et al. 1993) were randomised to treatment sequences comprising a single-dose administration of abediterol (at a metered nominal dose of 0.625, 2.5, 5 and 10 micrograms in the Genuair® device), one administration of indacaterol (at a metered nominal dose of 150 micrograms once daily in the Onbrez Breezhaler® device) and placebo (administered in both Genuair® and Onbrez Breezhaler®). The washout period between each administration was at least 7 days. Lung function measurements included (by spirometry) trough FEV1. Trough FEV1 is defined as a main FEV1 value between 23 and 24 h after Investigational Medicinal Product (IMP) administration.

A short description of data set [3]: Measurement of the delivered dose (collection tube, Genuair inhaler, HPLC). The class given is physicochemical. As to the method:
The measurement of the delivered dose is carried out based on Ph. Eur. Chapter 2.9.18 and USP <601> using “collection tube” apparatus (CT). For this, the Genuair® inhaler is fitted to the Collection Tube via an adapter, the dosage key of the Genuair® inhaler is pressed and released and then 2 L or 4 L of air are sucked through the inhaler and the Collection Tube (the inspiratory flow rate through the inhaler was approx. 65 L/min at a pressure drop of 4 KPa). Subsequently, the inhalation powder delivered to the Collection Tube is extracted with solvent and analyzed using High Performance Liquid chromatography equipment (HPLC).

Data set [4] can be described thus: Measurement of the fine particle dose (FPD<5 μm, Anderson Cascade Impactor, Genuair inhaler). It is filed as physicochemical. As to the method: The test on the aerodynamic assessment of the fine particles (FPD<5 μm) of the inhalation powder composition is carried out in combination with the Genuair® inhaler. The Fine Particle Fraction of abediterol free base was calculated on basis of the principles of the aerodynamic assessment of fine particles according to the Current European pharmacopoeia (Ph. Eur. Chapter 2.9.18) and USP <601> by the aid of aerodynamic impactor analyses using a modified Anderson Cascade Impactor (ACI), 60 L/min-configuration including pre-separator, stage −1, −0, and stage 1-7 (filter stage). The content of the active ingredient on each stage of the impactor is determined my means of HPLC.
The fine particle dose (FPD<5 μm) is calculated based on Ph. Eur. Chapter 2.9.18 and USP <601> by point to point interpolation per dosage. Linear point to point interpolation is done between the stages with a corresponding effective cut-off diameter which enclose the 5 μm mark.
To obtain the Fine Particle Dose, the cumulative percent value (y-value) at which the line of data plot crosses 5 μm mark is determined. […]
FPD [μg]=yFPD·F/100% • FPD=Fine particle dose<5 μm of the active ingredient per dosage [μg]. • yFPD=y-value of cumulative percentage of mass at a particle size of 5 μm evaluated by linear point to point interpolation [%]. • F=sum of mass on stage −1-stage 7 (filter) per dosage [μg].

In data set [5] the test system is asthmatic and COPD patients. Nature of the data set: Overall conclusion of the phase IIa studies in asthmatic and COPD patients. The class given is in vivo, human.
Description: as §1, §2

Setting [6] is: nominal dose of 1.25 micrograms abediterol free base.
Where [7] appears, read: nominal dose of 2.5 micrograms abediterol free base.

For `CC(C)(C)NCC(O)c1ccc(O)c(CO)c1` (centres unmarked) [Salbutamol, reference compound], the “Change from baseline in peak FEV1 on Day 1” value in data set [1] (400 μg (100 micrograms×4 puffs), Ventolin Evohaler, n = 58) was 555** ml.
In the case of `O=c1ccc2c([C@@H](O)CNCCCCCCOCC(F)(F)c3ccccc3)ccc(O)c2[nH]1` [Abediterol, 5-(2-{[6-(2,2-difluoro-2-phenylethoxy)hexyl]amino}-1(R)-hydroxyethyl)-8-hydroxyquinolin-2(1H)-one], the “Tolerability (ECG, laboratory parameters, adverse events)” value in data set [1] (asthma patients, doses 0.313-2.5 micrograms, no dose-dependent effect) is on record as “well tolerated”; in data set [2] (COPD patients, doses 0.625-10 micrograms, no dose-dependent effect), “well tolerated”. The “Bronchodilatory effect compared with salbutamol” value in data set [1] (doses of 1.25 and 2.5 micrograms vs salbutamol 400 micrograms) is “increased bronchodilatory effect”. For the same compound, the “Time to peak FEV1 at day 1” value in data set [1] (post-dose, all abediterol doses (0.313-2.5 micrograms)) is given as ≤ 4 h. Moreover, the “Change from baseline in peak FEV1 on Day 1” value in data set [1] (single inhaled dose 0.313 μg, Genuair, n = 60) is given as 477* ml; in data set [1] (single inhaled dose 0.625 μg, Genuair, n = 60) it was 524* ml; in data set [1] (single inhaled dose 1.25 μg, Genuair, n = 60), 573** ml; in data set [1] (single inhaled dose 2.5 μg, Genuair, n = 61), 608*** ml. For the same compound, the “Trough FEV1 compared with indacaterol 150 micrograms” value in data set [2] (doses of 2.5, 5 and 10 micrograms, statistically significant) is “greater trough FEV1”. For the same compound, the “Minimum therapeutic effective dose producing higher bronchodilatory effects when compared with indacaterol 150 micrograms” value in data set [2] (metered nominal dose, Genuair) was 2.5 micrograms. The “Change from baseline in morning pre-dose (trough) FEV1 at Day 2” value in data set [2] (single inhaled dose 0.625 μg, Genuair, n = 67) is 66* ml; in data set [2] (single inhaled dose 2.5 μg, Genuair, n = 66) it was 168** ml; in data set [2] (single inhaled dose 5 μg, Genuair) it was 198** ml; in data set [2] (single inhaled dose 10 μg, Genuair) it was 223*** ml. The “Delivered dose per dose” value in data set [3] (setting [6]) is listed as “about 1.1 micrograms”; in data set [3] (setting [7]), “about 2.3 micrograms”. In addition, the “Fine particle dose (FPD<5 μm) per dose” value in data set [4] (setting [6]) was “about 0.45 micrograms”; in data set [4] (setting [7]), “about 1.0 micrograms”. Also, the “Duration of bronchodilation effect” value in data set [5] (all dose levels tested) is “more than 24 h”. Besides, in data set [5] (all doses tested), the “Changes on safety outcomes (HR, QTcF, glucose and potassium)” value is recorded as “no overall clinically relevant changes”. Further, the “Minimum dose having similar therapeutic effect to salbutamol and indacaterol” value in data set [5] (metered nominal dose, Genuair) amounted to 0.625 micrograms.
Consider `CCc1cc2c(cc1CC)CC(NC[C@H](O)c1ccc(O)c3[nH]c(=O)ccc13)C2` [Indacaterol, reference compound], for which the “Change from baseline in morning pre-dose (trough) FEV1 at Day 2” value in data set [2] (150 μg, Onbrez Breezhaler, n = 68) is 76* ml.
